Laboratory results: patent US20250101436A1, “APTAMERS AND SMALL MOLECULE LIGANDS” (MeiraGTx UK II Limited, priority 2021, published 2025)

The substances below were run on luciferase gene expression in HEK 293 cells in response to Comp. 004 (assay: Screen of riboswitch constructs with 12C6-1 variant aptamers (libraries N1-N5) against Comp. 004, luciferase in HEK 293 cells). Settings: library N5 variant aptamers (L5, X16-X21 randomized) of 12C6-1 in riboswitch constructs; in response to Comp. 004 treatment; HEK 293 cells.
Format: cell-based, human
Outline: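 Riboswitch constructs carrying 12C6-1 aptamer variants, randomized in J2-4, J2-3/J3-3a/J3a-2/P3, L3a, J4-5/J5-4/P4 or L5 regions (libraries N1-N5), cloned into an intron-exon-intron cassette driving luciferase. Screened in HEK 293 cells with 25 µM Comp. 004; read-out is fold induction of gene expression versus parent Luci-12C6-1.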

Q: For “N5_7F1 (DNA CTGGGGAGTCCT; chemistry not given here)”, which “Fold (induction of luciferase gene expression)” value (from here on “Fold”) is on record?
A: 1744.2 fold

Q: For “N5_7F2 (DNA CTGGGGAGTCCT; chemistry not given here)”, which “Fold” value is on record?
A: 937.4 fold

Q: “N5_7F3 (DNA CTGGGGAGTCCT; chemistry not given here)” was tested. Which “Fold” value did it give?
A: 1139.0 fold

Q: How did the “Fold” value turn out when “N5_7F4 (DNA CTGGGGAGTCCT; chemistry not given here)” was run?
A: 1239.0 fold

Q: For “N5_7F5 (DNA CTGGGGAGTCCT; chemistry not given here)”, which “Fold” value is on record?
A: 1115.4 fold

Q: How did the “Fold” value turn out when “N5_7F6 (DNA CTGGGGAGTCCT; chemistry not given here)” was run?
A: 898.5 fold

Q: With “N5_7F8 (DNA CTGGGGAGTCCT; chemistry not given here)” as the substance, how does the “Fold” value read?
A: 1279.7 fold

Q: For “N5_7F9 (DNA CTGGGGAGTCCT; chemistry not given here)”, which “Fold” value is on record?
A: 642.4 fold

Q: “N5_7F10 (DNA CTGGGGAGTCCT; chemistry not given here)” was tested. Which “Fold” value did it give?
A: 572.7 fold

Q: “N5_7F11 (DNA CTGGGGAGTCCT; chemistry not given here)” was tested. Which “Fold” value did it give?
A: 339.7 fold

Q: “N5_7G1 (DNA CTGGGGAGTCCT; chemistry not given here)” was tested. Which “Fold” value did it give?
A: 935.4 fold

Q: For “N5_7G3 (DNA CTGGGGAGTCCT; chemistry not given here)”, which “Fold” value is on record?
A: 799.3 fold

Q: For “N5_7G6 (DNA CTGGGGAGTCCT; chemistry not given here)”, which “Fold” value is on record?
A: 902.8 fold

Q: With “N5_7G7 (DNA CTGGGGAGTCCT; chemistry not given here)” as the substance, how does the “Fold” value read?
A: 952.9 fold

Q: For “N5_7G8 (DNA CTGGGGAGTCCT; chemistry not given here)”, which “Fold” value is on record?
A: 775.6 fold

Q: With “N5_7G9 (DNA CTGGGGAGTCCT; chemistry not given here)” as the substance, how does the “Fold” value read?
A: 841.7 fold

Q: How did the “Fold” value turn out when “N5_7G10 (DNA CTGGGGAGTCCT; chemistry not given here)” was run?
A: 530.8 fold

Q: “N5_7G11 (DNA CTGGGGAGTCCT; chemistry not given here)” was tested. Which “Fold” value did it give?
A: 1533.8 fold

Q: “N5_7G12 (DNA CTGGGGAGTCCT; chemistry not given here)” was tested. Which “Fold” value did it give?
A: 894.6 fold

Q: For “N5_7H1 (DNA CTGGGGAGTCCT; chemistry not given here)”, which “Fold” value is on record?
A: 158.5 fold

Q: “N5_7H3 (DNA CTGGGGAGTCCT; chemistry not given here)” was tested. Which “Fold” value did it give?
A: 360.5 fold

Q: “N5_7H4 (DNA CTGGGGAGTCCT; chemistry not given here)” was tested. Which “Fold” value did it give?
A: 560.0 fold

Q: How did the “Fold” value turn out when “N5_7H5 (DNA CTGGGGAGTCCT; chemistry not given here)” was run?
A: 848.4 fold

Q: Which “Fold” value does the source give for “N5_7H9 (DNA CTGGGGAGTCCT; chemistry not given here)” here?
A: 860.0 fold

Q: “N5_7H10 (DNA CTGGGGAGTCCT; chemistry not given here)” was tested. Which “Fold” value did it give?
A: 713.9 fold

Q: Which “Fold” value does the source give for “N5_7H11 (DNA CTGGGGAGTCCT; chemistry not given here)” here?
A: 1105.2 fold

Q: For “N5_7H12 (DNA CTGGGGAGTCCT; chemistry not given here)”, which “Fold” value is on record?
A: 1194.5 fold

Q: With “N5_8A9 (DNA CTGGGGAGTCCT; chemistry not given here)” as the substance, how does the “Fold” value read?
A: 1090.4 fold

Q: For “N5_8C7 (DNA CTGGGGAGTCCT; chemistry not given here)”, which “Fold” value is on record?
A: 817.6 fold

Q: With “N5_8D1 (DNA CTGGGGAGTCCT; chemistry not given here)” as the substance, how does the “Fold” value read?
A: 1139.6 fold

Q: “N5_8F1 (DNA CTGGGGAGTCCT; chemistry not given here)” was tested. Which “Fold” value did it give?
A: 951.8 fold

Q: For “N5_8F3 (DNA CTGGGGAGTCCT; chemistry not given here)”, which “Fold” value is on record?
A: 862.0 fold

Q: Which “Fold” value does the source give for “N5_8F11 (DNA CTGGGGAGTCCT; chemistry not given here)” here?
A: 1282.8 fold

Q: With “N5_8G9 (DNA CTGGGGAGTCCT; chemistry not given here)” as the substance, how does the “Fold” value read?
A: 1066.5 fold

Q: For “N5_8H1 (DNA CTGGGGAGTCCT; chemistry not given here)”, which “Fold” value is on record?
A: 1191.9 fold

Q: Which “Fold” value does the source give for “N5_8H7 (DNA CTGGGGAGTCCT; chemistry not given here)” here?
A: 1218.5 fold

Q: With “N5_9B8 (DNA CTGGGGAGTCCT; chemistry not given here)” as the substance, how does the “Fold” value read?
A: 792.8 fold

Q: With “N5_9C2 (DNA CTGGGGAGTCCT; chemistry not given here)” as the substance, how does the “Fold” value read?
A: 1027.6 fold

Q: “N5_9C12 (DNA CTGGGGAGTCCT; chemistry not given here)” was tested. Which “Fold” value did it give?
A: 1094.3 fold

Q: How did the “Fold” value turn out when “N5_9E6 (DNA CTGGGGAGTCCT; chemistry not given here)” was run?
A: 1020.7 fold

Q: How did the “Fold” value turn out when “N5_9E12 (DNA CTGGGGAGTCCT; chemistry not given here)” was run?
A: 1458.4 fold

Q: “N5_9F1 (DNA CTGGGGAGTCCT; chemistry not given here)” was tested. Which “Fold” value did it give?
A: 875.6 fold

Q: For “N5_9G5 (DNA CTGGGGAGTCCT; chemistry not given here)”, which “Fold” value is on record?
A: 725.3 fold

Q: “N5_9G7 (DNA CTGGGGAGTCCT; chemistry not given here)” was tested. Which “Fold” value did it give?
A: 937.7 fold

Q: For “N5_9H1 (DNA CTGGGGAGTCCT; chemistry not given here)”, which “Fold” value is on record?
A: 1494.7 fold

Q: For “N5_11B9 (CTGGGGAGTCCT; chemistry not given here)”, which “Fold” value is on record?
A: 1595.4 fold

Q: “N5_11D10 (CTGGGGAGTCCT; chemistry not given here)” was tested. Which “Fold” value did it give?
A: 1719.3 fold

Q: Which “Fold” value does the source give for “N5_11F4 (CTGGGGAGTCCT; chemistry not given here)” here?
A: 1230.1 fold

Q: For “N5_11G4 (CTGGGGAGTCCT; chemistry not given here)”, which “Fold” value is on record?
A: 931.9 fold

Q: “N5_11G11 (CTGGGGAGTCCT; chemistry not given here)” was tested. Which “Fold” value did it give?
A: 1186.4 fold

Q: “N5_12E5 (CTGGGGAGTCCT; chemistry not given here)” was tested. Which “Fold” value did it give?
A: 1898.6 fold

Q: How did the “Fold” value turn out when “N5_12F4 (CTGGGGAGTCCT; chemistry not given here)” was run?
A: 2096.2 fold

Q: For “N5_12F11 (CTGGGGAGTCCT; chemistry not given here)”, which “Fold” value is on record?
A: 926.7 fold

Q: With “N5_12F12 (CTGGGGAGTCCT; chemistry not given here)” as the substance, how does the “Fold” value read?
A: 1169.8 fold

Q: “N5_12G2 (CTGGGGAGTCCT; chemistry not given here)” was tested. Which “Fold” value did it give?
A: 1074.1 fold

Q: With “N5_12G6 (CTGGGGAGTCCT; chemistry not given here)” as the substance, how does the “Fold” value read?
A: 2750.8 fold

Q: With “N5_12G11 (CTGGGGAGTCCT; chemistry not given here)” as the substance, how does the “Fold” value read?
A: 1043.8 fold

Q: Which “Fold” value does the source give for “N5_13C10 (CTGGGGAGTCCT; chemistry not given here)” here?
A: 1144.6 fold
